Measured values reported in US20030187240A1, “2' -modified oligonucleotides” (ISIS Pharmaceuticals, Inc., priority 1990, published 2003).
Strand notation (5' to 3'): a small letter for the sugar, then the base; units joined by * are phosphorothioate-linked, units joined directly phosphodiester-linked; [ ] holds rarer units or linkages, { } end groups; capitals alone tell only the bases. [OPr] = 2'-O-propyl nucleotide; [OPent] = 2'-O-pentyl nucleotide; d = 2'-deoxy (DNA); m = 2'-O-methyl; f = 2'-fluoro

Assays:
[1] = test system: crude HeLa cellular extracts
c-raf mRNA = assay: Northern blot analysis of inhibition of c-raf mRNA expression in T24 cells; assay type: cell-based, human
From the text: Chimeric oligonucleotides having SEQ ID NO: 7 were designed using the Genbank c-raf sequence HUMRAFR (Genbank listing x03484), synthesized and tested for inhibition of c-raf mRNA expression in T24 bladder carcinoma cells using a Northern blot assay. These chimeric oligonucleotides have central “gap” regions of 6, 8 or 10 deoxynucleotides flanked by two regions of 2′-O-methyl modified nucleotides, and are shown in Table 10. Backbones were uniformly phosphorothioate. […] These oligonucleotides are preferred.
The human urinary bladder cancer cell line T24 was obtained from the American Type Culture Collection (Rockville, Md.). Cells were grown in McCoy's 5A medium with L-glutamine (GIBCO-BRL, Gaithersburg, Md.), supplemented with 10% heat-inactivated fetal calf serum and 50 U/ml each of penicillin and streptomycin. Cells were seeded on 100 mm plates. When they reached 70% confluency, they were treated with oligonucleotide. Plates were washed with 10 ml prewarmed PBS and 5 ml of OptiMEM reduced-serum medium containing 2.5 μl DOTMA. Oligonucleotide with lipofectin was then added to the desired concentration. After 4 hours of treatment, the medium was replaced with McCoy's medium. Cells were harvested 24 to 72 hours after oligonucleotide treatment and RNA was isolated using a standard CsCl purification method. [Kingston in Current Protocols in Molecular Biology, F. M. Ausubel, R. Brent, R. E. Kingston, D. D. Moore, J. A. Smith, J. G. Seidman and K. Strahl, Eds., John Wiley and Sons, New York.] Total RNA was isolated by centrifugation of cell lysates over a CsCl cushion. RNA samples were electrophoresed through 1.2% agarose-formaldehyde gels and transferred to hybridization membranes by capillary diffusion over a 12-14 hour period. The RNA was cross-linked to the membrane by exposure to UV light in a Stratalinker (Stratagene, La Jolla, Calif.) and hybridized to random-primed ^32P-labeled c-raf cDNA probe (obtained from ATCC) or G3PDH probe as a control. RNA was quantitated using a Phosphorimager (Molecular Dynamics, Sunnyvale, Calif.).

PKC-α mRNA = PKC-α mRNA levels by Northern blot analysis; assay type: cell-based, human; details: FIGS. 3, 4 and 5; result in words
Protocol: Oligonucleotides having SEQ ID NO: 4 were synthesized as uniformly phosphorothioate chimeric oligonucleotides having a centered deoxy gap of varying lengths flanked by 2′-O-methylated regions. These oligonucleotides (500 nM concentration) were tested for effects on PKC-α mRNA levels by Northern blot analysis.

H-ras = assay: ras transactivation reporter gene assay; assay type: cell-based; details: for IC50: antisense activity against H-ras, 17-mer with 7-deoxy gap
From the text: The expression plasmid pSV2-oli, containing an activated (codon 12, GGC→GTC) H-ras cDNA insert under control of the constitutive SV40 promoter, was a gift from Dr. Bruno Tocque (Rhone-Poulenc Sante, Vitry, France). This plasmid was used as a template to construct, by PCR, a H-ras expression plasmid under regulation of the steroid-inducible mouse mammary tumor virus (MMTV) promoter. To obtain H-ras coding sequences, the 570 bp coding region of the H-ras gene was amplified by PCR. The PCR primers were designed with unique restriction endonuclease sites in their 5′-regions to facilitate cloning. The PCR product containing the coding region of the H-ras codon 12 mutant oncogene was gel purified, digested, and gel purified once again prior to cloning. This construction was completed by cloning the insert into the expression plasmid pMAMneo (Clontech Laboratories, Calif.).
The ras-responsive reporter gene pRD053 was used to detect ras expression. [Owen et al., Proc. Natl. Acad. Sci. U.S.A., 87, 3866 (1990).

[2] = test system: 25 mer oligoribonucleotide complement; assay: Melting curves of 2′-modified 17-mers with 7-deoxy gap; assay type: binding; details: 17-mer with 7-deoxy gap hybridized with 25 mer oligoribonucleotide complement
From the text: This is attributed to these phosphodiester compounds being substrates for nucleases that degrade such phosphodiester compounds thus preventing them potentially activating RNase H. Other sugar modifications: The effects of other 2′ sugar modifications besides 2′-O-methyl on antisense activity in chimeric oligonucleotides have been examined. These modifications are listed in Table 4, along with the Tm values obtained when 17 mer oligonucleotides having 2′-modified nucleotides flanking a 7-base deoxy gap were hybridized with a 25 mer oligoribonucleotide complement as described in Example 25. […] As alkyl length increased, Tm decreased.
Absorbance vs. temperature curves were measured at 260 nm using a Gilford 260 spectrophotometer interfaced to an IBM PC computer and a Gilford Response II spectrophotometer. The buffer contained 100 mM Na^+, 10 mM phosphate and 0.1 mM EDTA, pH 7. Oligonucleotide concentration was 4 μM each strand determined from the absorbance at 85° C. and extinction coefficients calculated according to Puglisi and Tinoco [Methods in Enzymol., 180, 304 (1989). Tm values, free energies of duplex formation and association constants were obtained from fits of data to a two state model with linear sloping baselines. [Petersheim and Turner, Biochemistry, 22, 256 (1983). Reported parameters are averages of at least three experiments. For some oligonucleotides, free energies of duplex formation were also obtained from plots of Tm^−1 vs log10 (concentration). Borer et al., J. Mol. Biol., 86, 843 (1974).

ras mRNA = assay: Northern blot analysis of ras expression in T24 cells; assay type: cell-based, human; details: result in words
Protocol: The human urinary bladder cancer cell line T24 was obtained from the American Type Culture Collection (Rockville Md.). Cells were grown in McCoy's 5A medium with L-glutamine (GIBCO-BRL, Gaithersburg, Md.), supplemented with 10% heat-inactivated fetal calf serum and 50 U/ml each of penicillin and streptomycin. Cells were seeded on 100 mm plates. When they reached 70% confluency, they were treated with oligonucleotide. Plates were washed with 10 ml prewarmed PBS and 5 ml of OptiMEM (GIBCO) reduced-serum medium containing 2.5 μl DOTMA. Oligonucleotide was then added to the desired concentration. After 4 hours of treatment, the medium was replaced with McCoy's medium. Cells were harvested 48 hours after oligonucleotide treatment and RNA was isolated using a standard CsCl purification method. [Kingston in Current Protocols in Molecular Biology, F. M. Ausubel, R. Brent, R. E. Kingston, D. D. Moore, J. A. Smith, J. G. Seidman and K. Strahl, Eds., John Wiley and Sons, New York.] The human epithelioid carcinoma cell line HeLa 229 was obtained from the American Type Culture Collection (Bethesda, Md.). HeLa cells were maintained as monolayers on 6-well plates in Dulbecco's Modified Eagle's medium (DMEM) supplemented with 10 fetal bovine serum and 100 U/ml penicillin. Treatment with oligonucleotide and isolation of RNA were essentially as described above for T24 cells.
Northern hybridization: 10 μg of each RNA was electrophoresed on a 1.2% agarose/formaldehyde gel and transferred overnight to GeneBind 45 nylon membrane (Pharmacia LKB, Piscataway, N.J.) using standard methods. [Kingston in Current Protocols in Molecular Biology, F. M. Ausubel, R. Brent, R. E. Kingston, D. D. Moore, J. A. Smith, J. G. Seidman and K. Strahl, Eds., John Wiley and Sons, New York.] RNA was UV-crosslinked to the membrane. Double-stranded ^32P-labeled probes were synthesized using the Prime a Gene labeling kit (Promega, Madison Wis.). The ras probe was a SalI-NheI fragment of a cDNA clone of the activated (mutant) H-ras mRNA having a GGC-to-GTC mutation at codon-12. The control probe was G3PDH. Blots were prehybridized for 15 minutes at 68° C. with the QuickHyb hybridization solution (Stratagene, La Jolla, Calif.). The heat-denatured radioactive probe (2.5×10^6 counts/2 ml hybridization solution) mixed with 100 μl of 10 mg/ml salmon sperm DNA was added and the membrane was hybridized for 1 hour at 68° C. The blots were washed twice for 15 minutes at room temperature in 2×SSC/0.1% SDS and once for 30 minutes at 60° C. with 0.1×SSC/0.1%SDS. Blots were autoradiographed and the intensity of signal was quantitated using an ImageQuant PhosphorImager (Molecular Dynamics, Sunnyvale, Calif.). Northern blots were first hybridized with the ras probe, then stripped by boiling for 15 minutes in 0.1×SSC/0.1%SDS and rehybridized with the control G3PDH probe to check for correct sample loading.

[3] = test system: codon-12 point mutation of mutant (activated) H-ras RNA; assay type: cell-based, human

4233 (CCACACCGACGGCGCCC; 2'-O-methyl wings, mixed phosphorothioate/phosphodiester, pattern not given here) [Oligonucleotide 4233]
T½ [1]: 7 h

4248 (CCACACCGACGGCGCCC; 2'-O-methyl wings, mixed phosphorothioate/phosphodiester, pattern not given here) [Oligonucleotide 4248]
degradation in HeLa cell extract [1]: no degradation after 5 hours

6717 (TCCCGCCTGTGACATGCATT; sugars from the 5' end m6 d8 m6, all phosphorothioate, T or U not given here) [Oligonucleotide 6717]
inhibition of c-raf mRNA expression (c-raf mRNA): greater than 90%

7008 (mA*mAmAmAmCdG*dT*dC*dA*dG*dC*dC*dA*dT*dGdGdTdCdC*dC) [Oligonucleotide 7008]
effect on PKC-α mRNA levels (PKC-α mRNA): show reduction of PKC-α mRNA

7082 (dT*dC*dT*dC*dG*dC*dT*dG*dG*dT*dG*dA*dG*dT*dT*dT*dC; antisense) [Oligonucleotide 7082]
effect on PKC-α mRNA levels (PKC-α mRNA): most active in reducing PKC-α mRNA levels

7083 (TCTCGCTGGTGAGTTTC; antisense; sugars from the 5' end [OPr]3 d9 [OPr]5, all phosphorothioate, methylation of C not given here) [Oligonucleotide 7083]
effect on PKC-α mRNA levels (PKC-α mRNA): most active in reducing PKC-α mRNA levels

7273 (AAAACGTCAGCCATGGTCCC; 2'-O-propyl/deoxy, mixed P=S/P=O backbone, chemistry not fully specified) [Oligonucleotide 7273]
effect on PKC-α mRNA levels (PKC-α mRNA): more active than their 2′-O-methyl counterparts at lowering PKC-α mRNA levels

7294 (AAAACGTCAGCCATGGTCCC; sugars from the 5' end [OPr]6 d14, linkages s1 o4 s9 o4 s1 (s phosphorothioate, o phosphodiester), methylation of C not given here) [Oligonucleotide 7294]
effect on PKC-α mRNA levels (PKC-α mRNA): more active than their 2′-O-methyl counterparts at lowering PKC-α mRNA levels

7849 (dC*dT*dC*dG*dC*dC*dC*dG*dC*dT*dC*dC*dT*dC*dC*dT*dC*dC*dC*dC) [Oligonucleotide 7849]
inhibition of c-raf mRNA expression (c-raf mRNA): > 70%

C^FC^FA^F C^FA^FCd CdGdAd CdGdGd C^FG^FC^F C^FC^F [Oligonucleotide 4690]
antisense activity against H-ras (inhibition of ras expression) (H-ras): most active | IC50 (H-ras): 10 nM | Tm (° C.) ([2]; listed as 2′-fluoro chimeric oligonucleotide): highest Tm of the series | Tm (° C.) ([2]; listed as Fluoro): 7 °C

C^MC^MA^M C^MA^MCd CdGdAd CdGdGd C^MG^MC^M C^MC^M [Oligonucleotide 3985]
IC50 (H-ras): 20 nM | Tm (° C.) [2]: 7 °C | inhibition of ras expression in T24 cells (ras mRNA): inhibited

CsCsAsCoAoCoCoGoAoCoGoGoCoGsCsCsC [Oligonucleotide 4241]
effect on ras expression (ras-luciferase reporter system), chimeric backbone-modified oligonucleotides [3]: completely inactive | T½ [1]: 0.9 h

CsCsAsCsAsCsCoGoAoCoGoGsCsGsCsCsC [Oligonucleotide 4606]
T½ [1]: 1.75 h

CsCsAsCsAsCsCoGoAoCoGsGsCsGsCsCsC [Oligonucleotide 4593]
T½ [1]: ~3.2 h

CsCsAsCsAsCsCsGoAoCoGsGsCsGsCsCsC [Oligonucleotide 4551]
T½ [1]: ~3.75 h

CsCsAsCsAsCsCsGoAoCsGsGsCsGsCsCsC [Oligonucleotide 4546]
T½ [1]: approximately 5.5 hours

O-Pentyl: 17-mer CCACACCGACGGCGCCC with 2′-O-pentyl nucleotides flanking a 7-base deoxy gap (sugars from the 5' end [OPent]5 d7 [OPent]5, backbone and methylation of C not given here)
IC50 (H-ras): 150 nM | Tm (° C.) [2]: 6 °C

O-Propyl: 17-mer CCACACCGACGGCGCCC with 2′-O-propyl nucleotides flanking a 7-base deoxy gap (sugars from the 5' end [OPr]5 d7 [OPr]5, backbone and methylation of C not given here)
IC50 (H-ras): 70 nM | Tm (° C.) [2]: 7 °C | inhibition of ras expression in T24 cells (ras mRNA): inhibited

Oligonucleotide 4689: SEQ ID NO: 1, 2′-fluoro-modified nucleotides flanking a 5-deoxy gap (CCACACCGACGGCGCCC; sugars from the 5' end f6 d5 f6, backbone and methylation of C not given here)
antisense activity against H-ras (inhibition of ras expression) (H-ras): also active
